# Test results from PubChem BioAssay AID850 (SRMLSC, 2007).
# Active and inactive are the calls of the source. No rule for the calls is given here.
# Experiments:
# [1] = tested on: Saccharomyces cerevisiae growth inhibition, permissive control; assay: concentration-response yeast growth inhibition under permissive conditions, counter-assay for yeast lifespan-shortening chemical project (AID 850);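 also: growth read as optical density after one day of incubation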
# [2] = as above; conditions: Saccharomyces cerevisiae growth inhibition, permissive control, measured here: maximum growth inhibition, stronger effect = higher value
SMILES,IC50 [1],inhibition ([2]; at 50 µM) [%],other results
CN1CCN(CC(=O)N2CCn3c4c(c5cc(C6CCCCC6)ccc53)CCCC42)CC1 (stereo unspecified),> 100 µM (inactive),–,inhibition ([2]; at 1.563 µM): 6.73%
CC1=NOC(=O)/C1=C/c1ccc(-c2ccc(Cl)cc2)o1,11 µM,–,inhibition ([2]; at 25 µM): 90.5%
CC(C)c1ccc(NC(=S)NCCc2c[nH]c3ccccc23)cc1,> 100 µM (inactive),–,inhibition ([2]; at 3.125 µM): 20.3%
Oc1ccc(/C=C/c2nc(-c3ccccc3O)n(-c3ccccc3)n2)cc1,47.1 µM,54.3,–
N=c1n(CCN2CCOCC2)c2ccccc2n1CC(=O)c1ccc(Cl)c(Cl)c1,35.4 µM,61.4,–
O=S(=O)(NC1CC2CCC1C2)c1ccc(Br)s1 (stereo unspecified),1.28 µM,–,inhibition ([2]; at 12.5 µM): 99%
O=C(O)CSc1nc(-c2ccc(Cl)cc2)nc2c1oc1ccccc12,32.1 µM,86.6,–
Cc1ccc(-c2[nH]nc(N)c2N=Nc2ccccc2C)cc1,> 100 µM (inactive),–,inhibition ([2]; at 0.391 µM): 17.6%
c1ccc(-c2nc(-n3ccnc3)nc(-n3ccnc3)n2)cc1,> 100 µM (inactive),–,inhibition ([2]; at 1.563 µM): 17.9%
COc1ccc(OCc2nnc3n2N=C(c2ccc(OC)cc2)CS3)cc1,> 100 µM (inactive),–,inhibition ([2]; at 0.781 µM): 20.9%
O=c1c2ccccc2nc2c3ccccc3c3nncn3n12,> 100 µM (inactive),–,inhibition ([2]; at 6.25 µM): 5.16%
COc1ccc(CNC(=O)CSc2nnc(-c3ccc(NC(C)=O)cc3)n2C)cc1,> 100 µM (inactive),–,inhibition ([2]; at 3.125 µM): 26.8%
CCCC1COC(Cn2cncn2)(c2ccc(Cl)cc2Cl)O1 (stereo unspecified),0.184 µM,–,inhibition ([2]; at 3.125 µM): 97.3%
Oc1cc(-c2ccccc2)c2ccccc2c1,35.3 µM,92.8,–
COc1cc(/C=C2\C(=O)ON=C2c2ccccc2)cc(OC)c1OC,> 100 µM (inactive),–,inhibition ([2]; at 0.781 µM): -2.57%
Clc1ccc(COC(Cn2ccnc2)c2ccc(Cl)cc2Cl)cc1 (stereo unspecified),0.705 µM,100,–
C=C(C)COc1ccc(-c2[nH]ncc2Oc2ccccc2OC)c(O)c1,> 100 µM (inactive),–,inhibition ([2]; at 1.563 µM): -1.35%
Cn1cccc1C(=O)NC(=O)CSc1cccc[n+]1[O-],24.3 µM,97.5,–
Oc1c(Cl)cc(Cl)c(Cl)c1Cc1c(O)c(Cl)cc(Cl)c1Cl,> 100 µM (inactive),–,inhibition ([2]; at 6.25 µM): 23.3%
COC(=O)Cn1c2ccc(C)cc2c2nc(C)sc21,> 100 µM (inactive),16,–
Cc1cccc(C(=O)O/N=C/c2c(N3CCOCC3)n(C)c3ccccc23)c1,50.1 µM,48.1,–

SMILES,IC50 [1],inhibition ([2]; at 50 µM) [%],other results
O=[N+]([O-])c1cc(/C=N/O)ccc1Sc1ccccc1,> 100 µM (inactive),7.13,–
OC(CN1CCN(c2ccccn2)CC1)Cn1c2ccc(Cl)cc2c2cc(Cl)ccc21 (stereo unspecified),30.9 µM,98.9,–
CNC(=S)N/N=C(\C)c1ccc(N2CCOCC2)cc1,> 100 µM (inactive),–,inhibition ([2]; at 0.195 µM): 9.86%
CCCCCCCCCCCCCCCC(O)C(N)CO (stereo unspecified),24.8 µM,99.2,–
Cc1ccc2nc(-c3ccc(NS(C)(=O)=O)cc3)cc(-c3ccccc3)c2c1,> 100 µM (inactive),22.2,–
Cc1cccnc1Nc1nc(-c2ccccn2)cs1,37.9 µM,94.5,–
Cc1ccc(-c2cc(-c3ccccc3C)[nH]n2)c(O)c1,22.2 µM,89.4,–
COc1ccc(C(=O)/C=C/Nc2ccc(C)cn2)cc1OC,> 100 µM (inactive),–,inhibition ([2]; at 1.563 µM): 14.8%
Cn1c(/C=C/c2ccc([N+](=O)[O-])o2)nc2ccccc2c1=O,51.4 µM,47.5,–
Cc1nn2c(-c3ccco3)nnc2c2ccccc12,> 100 µM (inactive),–,inhibition ([2]; at 25 µM): 14.3%
O=C(C1=C(O)/C(=C/c2ccc(O)cc2)CCC1)C(F)(F)F,> 100 µM (inactive),–,inhibition ([2]; at 0.195 µM): 7.72%
COc1ccc(N)c2c1C(=O)c1ccccc1C2=O,> 100 µM (inactive),–,inhibition ([2]; at 25 µM): 22.5%
O=c1c(-c2ccc(Cl)cc2)[n+]([O-])c2ccccc2n1O,7.82 µM,–,inhibition ([2]; at 25 µM): 99.8%
COc1ccc(OCCNC2CCCC2)cc1,> 100 µM (inactive),–,inhibition ([2]; at 0.195 µM): 7.53%
CSC1=NSC2=NC(=O)/C(=C\c3coc4ccccc4c3=O)C(=N)N12,> 100 µM (inactive),19.2,–
O=C(O)c1ccc2nc(-c3ccccc3)sc2c1,> 100 µM (inactive),–,inhibition ([2]; at 0.781 µM): 28.2%
Clc1ccc2[nH]c3c(c2c1)CCc1cn[nH]c1-3,5.72 µM,–,inhibition ([2]; at 25 µM): 93.8%
O=C1NCCCC1C(=O)N/N=C/c1cccc(O)c1 (stereo unspecified),> 100 µM (inactive),–,inhibition ([2]; at 1.563 µM): 16%
O=C(Nc1nnc(C2CC2)s1)c1ccccn1,> 100 µM (inactive),22.8,–
C=CCN1C(=O)/C(=C/c2cccs2)C(=O)NC1=S,6.15 µM,99.8,–
Cc1c(C(=O)O)cccc1-c1ccc(/C=N/Nc2ccc(Br)cc2)o1,13.1 µM,95.6,–

SMILES,IC50 [1],inhibition ([2]; at 50 µM) [%],other results
CCc1cccc(CC)c1NC(=S)NCc1ccc2[nH]c(C)cc2c1,> 100 µM (inactive),13.8,–
Cn1cccc1Cc1nnc(SCC(=O)Nc2nccs2)n1CCc1ccccc1,> 100 µM (inactive),–,inhibition ([2]; at 6.25 µM): 29%
Cc1sc2ncnc(N/N=C/c3ccccc3O)c2c1C,32.2 µM,94.2,–
O=[N+]([O-])c1ccc(O)c(/C=N/Nc2ccccn2)c1,> 100 µM (inactive),–,inhibition ([2]; at 0.781 µM): 16.1%
CN1C(=O)/C(=N/OC(=O)c2ccccc2)c2ccccc21,46.3 µM,90.8,–
CCCCc1ccc(NC(=S)Nc2ccc(Nc3ccc(OC)cc3)cc2)cc1,> 100 µM (inactive),16.8,–
c1ccc2nc3c(nc2c1)[nH]c1ccccc13,> 100 µM (inactive),19.1,–
c1cncc(-c2nnc(-c3cccnc3)nn2)c1,26.3 µM,90.5,–
Cc1oc(-c2ccc3c(c2)OCCO3)cc1C(=O)O,47.8 µM,–,inhibition ([2]; at 25 µM): 48.3%
c1cnc2c(c1)ccc1cccnc12,8.23 µM,100,–
COc1cc(OC)c(C2CC(=O)N3CN(C)CSC3=C2C#N)cc1OC (stereo unspecified),> 100 µM (inactive),–,inhibition ([2]; at 0.781 µM): 11%
Cc1cccc(OCCn2cc(/C=N/NC(=O)c3ccncc3)c3ccccc32)c1,> 100 µM (inactive),–,inhibition ([2]; at 0.781 µM): 10%
CCCC(=O)NC(c1cccs1)c1cc([N+](=O)[O-])c2cccnc2c1O (stereo unspecified),24.1 µM,96.5,–
Cc1nc2ccccc2c2nc3ccccc3n12,38.5 µM,63.9,–
Cn1c2ccccc2c2cc(C(=O)O)ccc21,> 100 µM (inactive),23.6,–
CN1CSC(=S)N(C)C1,12.6 µM,97,–
C=CCC1c2cccc(C(=O)O)c2C(=O)N1c1cccc(C)c1 (stereo unspecified),49.7 µM,–,inhibition ([2]; at 25 µM): 44.4%
COCCN1CSC(=S)N(Cc2ccco2)C1,34.5 µM,64.7,–
Cc1ccc(NC(=S)Nc2ccc(Cl)c(Cl)c2)c(OC(F)F)c1,24.8 µM,76,–
O=C(Nc1cccc(C(F)(F)F)c1)C(Sc1cccc[n+]1[O-])c1ccccc1 (stereo unspecified),31.4 µM,90.2,–
O/N=C/c1cc(Cl)ccc1OCc1cccc2ccccc12,> 100 µM (inactive),–,inhibition ([2]; at 0.391 µM): 11.2%

SMILES,IC50 [1],inhibition ([2]; at 50 µM) [%],other results
O=C(CC(=O)c1cc(Cl)ccc1O)c1ccccc1,> 100 µM (inactive),–,inhibition ([2]; at 12.5 µM): 24.9%
C(=C\c1nc(N2CCCCCC2)c2ccccc2n1)/c1ccccc1,39.2 µM,78.2,–
CC1=CC(=O)C=C(C)C1=NOS(=O)(=O)c1ccccc1,26.4 µM,–,inhibition ([2]; at 12.5 µM): 62.4%
OC(CNCCC1C=Nc2ccccc21)Cn1c2ccc(Cl)cc2c2cc(Cl)ccc21 (stereo unspecified),18.4 µM,100,–
Cc1nc2c(F)c(F)c(C(F)(F)F)c(F)c2[nH]1,> 100 µM (inactive),–,inhibition ([2]; at 0.391 µM): 17.4%
CC1(C)C[C@H]2C=C(C=O)[C@]3(C=O)C[C@]3(C)[C@H]2C1,4.38 µM,100,–
COc1ccc2c(C)nc(Nc3nc(C)c(C)c(=O)[nH]3)nc2c1,44.6 µM,50.7,–
CCN1/C(=C/c2ccc3cccc(C)c3[n+]2CC)Sc2ccccc21,8.03 µM,99.4,–
CCCn1c(C)cc(C(=O)COC(=O)c2ccc[nH]c2=O)c1C,> 100 µM (inactive),17.4,–
C=CCNC(=S)N/N=C(\C)c1ccccn1,13.8 µM,99.4,–
Cc1cc(O)c(/C=N/Nc2ccccc2Cl)c(=O)o1,22.3 µM,95.1,–
COc1ccc(C(=O)NC(=S)NNC(=O)c2cnccn2)cc1OC,46.5 µM,–,inhibition ([2]; at 25 µM): 47.1%
Cc1cc(O)c(/C=N/Nc2cccc(Cl)c2)c(=O)o1,26.7 µM,80.8,–
CCC1CCCCN1C(=O)CSc1nnc(-c2ccc(OC)cc2)o1 (stereo unspecified),> 100 µM (inactive),–,inhibition ([2]; at 12.5 µM): 24.1%
c1ccc2nc3ccccc3nc2c1,44.8 µM,55.6,–
COC(=O)Cn1c2ccccc2c2nc(C)sc21,> 100 µM (inactive),–,inhibition ([2]; at 6.25 µM): 28.7%
O=C1c2cccc3c(Cl)ccc(c23)C(=O)N1O,39.6 µM,61.6,–
O=C1c2ccc3c4c(ccc(c24)C(=O)N1NC(=O)C(F)(F)F)CC3,> 100 µM (inactive),–,inhibition ([2]; at 0.195 µM): 15.2%
O=C1CC(N2CCN(c3nc4ccccc4s3)CC2)C(=O)N1Cc1cccs1 (stereo unspecified),> 100 µM (inactive),–,inhibition ([2]; at 0.781 µM): 28.5%
CCN(CC)N=Nc1[nH]nc2nc(C)cc(C)c12,48.6 µM,55.1,–
